Test results from US20260283972A1, “A COMPOUND FOR PREPARING LIPID NANOPARTICLES ENCAPSULATING AN AGENT, NANOPARTICLE COMPOSITION COMPRISING SAID COMPOUND AND RELATED METHODS THEREOF” (AGENCY FOR SCIENCE, TECHNOLOGY AND RESEARCH, priority 2023, published 2026).
“Also recorded” adds a separate entry of the source.

How the values were obtained:
Assay type in all cases: cell-based
SH-SY5Y cells = experiment: In vitro neurotoxicity, cell viability (AlamarBlue)
Description: HEK293 cells were grown in Dulbecco's […] (DMEM) supplemented with 10% FBS and 5% penicillin/streptomycin (Corning). SY-SY5Y cells were grown with a mixture of DMEM/Ham's F-12 with 2 mM L-glutamine (50:50 v/v) supplemented with 10% FBS and 5% penicillin/streptomycin. All cultures were grown in 37° C. incubators supplemented with 5% CO2 and were cultured according to suppliers' instructions. For all screening, cells were plated in 96-well plates at 10,000 cells per well in 100 μL of the appropriate media outlined above for the different cells. The formulated LNPs containing polymyxin B and free polymyxin B were then added to the wells at the desired polymyxin B concentration (e.g., 300, 150, 75, 37.5, 18.8, 9.4 μg mL^−1). The polymyxin B concentration of formulated LNPs was determined using the calibration plot of polymyxin B standards.

[1] = tested on: Escherichia coli (ATCC No. 25922); experiment: Antibacterial activity in vitro, broth microdilution MIC and MBC; details: for MIC E. coli: 24 h at 37° C.
Description: (§1) The MICs (minimum inhibitory concentrations) of the formulated LNPs containing polymyxin B and free polymyxin B against Gram-negative bacteria were determined using a broth microdilution method. Briefly, the bacteria were incubated overnight in MHB, and the bacteria suspension was diluted with MHB to achieve a concentration of […] (CFU)/mL (O.D. 600=0.100). This was followed by a 1000-fold dilution in MHB. The bacterial suspension was then seeded into a 96-well plate (80 μL per well) and mixed with 20 μL of MHB containing different polymyxin B-loaded LNPs or free polymyxin B concentrations. The 96-well plate was incubated for 24 h at 37° C. (bacteria). […] The MIC experiments were performed with four independent replicates. The MBCs (minimum bactericidal concentrations) were evaluated at the end of the MIC experiment.
(§2) The microbial suspension was then spread on LB agar plates, and the plates were incubated at 37° C. for 24 h to determine CFU on each agar plate. The experiments were performed in replicates of five. The MBC experiment was conducted with three independent replicates.

[2] = tested on: Pseudomonas aeruginosa (ATCC No. 9027); experiment: as above; details: for MIC P. aeruginosa: 24 h at 37° C.
Description: as §1, §2

[3] = Table 6, experiment with 2nd formulation
[4] = Table 7, experiment with 1st formulation

Polymyxin B [Polymyxin B (PB)] was tested. Which “viability of SH-SY5Y cells” value (SH-SY5Y cells; 300 μg mL^−1 of polymyxin B, 24 h incubation) did it give?
The value was ~ 76%.

What about the “neurotoxicity / cell toxicity against SH-SY5Y” value (SH-SY5Y cells; high concentration, 300 μg mL^−1, listed as free polymyxin B) of the same substance?
The value was “relatively pronounced cell toxicity; also recorded: Pronounced neurotoxicity was observed”.

And the “MBC E. coli” value [1, 3]?
Its value is 5.0 mg/L.

And the “MIC E. coli” value [1, 3]?
Its value is 1.25 mg/L.

And the “MBC E. coli” value [1, 4]?
Its value is 5.0 mg/L.

What about the “MIC E. coli” value [1, 4] of the same substance?
Its value is 5.0 mg/L.

And the “MBC P. aeruginosa” value [2, 3]?
The value was 2.50 mg/L.

And the “MIC P. aeruginosa” value [2, 3]?
Its value is 1.25 mg/L.

And the “MBC P. aeruginosa” value [2, 4]?
Its value is 5.0 mg/L.

And the “MIC P. aeruginosa” value [2, 4]?
Its value is 5.0 mg/L.
